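Following 48 hours of exposure in 96-well plates, responses at five concentrations were used to interpolate endpoints linearly. GI50 marks 50% less growth.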 Active and inactive are the calls of the source. No stated cut-off is given here; in the data, active = GI50 up to about 1.1 µM and inactive = higher. A value given as a limit tells only on which side of the number the result lay.

Test systems include 786-0; A498; A549; CCRF-CEM; COLO 205; DU-145; HCT-116; HCT-15; Hs-578T; MDA-MB-435; NCI-H226; NCI-H522; OVCAR-3; PC-3; RXF 393; SK-OV-3; SW-620; TK-10; UACC-257; UACC-62.
Assay in all cases: NCI tumour cell line growth inhibition, 48 h

Take `CCOC(=O)C(Cc1ccc(N(CCCl)CCCl)cc1)NC(=O)CCCN1C(=O)CN=C(c2ccccc2)c2cc(Cl)ccc21` (stereo not given): the GI50 was 10.2 µM (inactive) with 786-0; 39.9 µM (inactive) in the test with A498; 39.1 µM (inactive) in the test with A549; 2.61 µM (inactive) with CCRF-CEM; 16.2 µM (inactive) with COLO 205; 14.9 µM (inactive) in the test with DU-145. Further, the GI50 in the test with HCT-116 was 21 µM (inactive); in the test on HCT-15, 20.6 µM; in the test with Hs-578T, 6.67 µM (inactive); with MDA-MB-435, 16.1 µM (inactive); in the test with NCI-H226, 35.2 µM (inactive); with NCI-H522 it was 3.03 µM (inactive). Moreover, the GI50 with OVCAR-3 was 2.22 µM (inactive); in the test on PC-3, 11.7 µM (inactive); in the test on RXF 393, 3.25 µM (inactive); with SK-OV-3, > 76.2 µM (inactive); in the test with SW-620 it was 10.2 µM (inactive); in the test with TK-10 it was > 66.5 µM (inactive). Also, the values for the GI50 with UACC-257 and in the test on UACC-62 were 3.6 µM (inactive) and 2.72 µM (inactive), respectively.

For `C/C=C(\N=C=S)C(=O)OC1C(COC(C)=O)OC([C@]2(O)CC(=O)C(N)=C(C(=O)O)C2=O)C(O)C1OC1CC(OC)C(O)([C@@H](C)OC(=O)[C@@H](C)CC)C(C)O1` (stereo not given in full), the GI50 was 12.3 µM (inactive) in the test on 786-0; 35 µM (inactive) in the test with A498; 33.7 µM (inactive) in the test with A549; 2.4 µM (inactive) in the test with CCRF-CEM; 4.71 µM (inactive) in the test with COLO 205; 18.9 µM (inactive) in the test on DU-145. Also, the GI50 with HCT-116 is 7.83 µM (inactive); with HCT-15, 16 µM; in the test on Hs-578T, 7.82 µM (inactive); in the test with MDA-MB-435, 17.3 µM (inactive); in the test with NCI-H226 it was 19.4 µM (inactive); with NCI-H522, 2.17 µM (inactive). Moreover, the GI50 in the test with OVCAR-3 is 15.8 µM (inactive); with PC-3, 15.7 µM (inactive); with RXF 393, 5.35 µM (inactive); in the test with SK-OV-3, 21.5 µM (inactive); with SW-620, 3.01 µM (inactive); in the test on TK-10, 16.7 µM (inactive). Further, the GI50 in the test on UACC-257 is 15.4 µM (inactive); with UACC-62, 5.31 µM (inactive).

`CCN(CC)CCOC(=O)CCN1CC2CCC(CC2)C1`: the GI50 in the test on 786-0, with A498, in the test on A549, in the test with CCRF-CEM, in the test on COLO 205 and with DU-145 was > 100 µM (inactive) each time. Moreover, the GI50 with HCT-116 is > 100 µM (inactive); with HCT-15 it was over 100 µM; with Hs-578T, > 100 µM (inactive); in the test on MDA-MB-435 it was > 100 µM (inactive); with NCI-H226, > 100 µM (inactive); in the test on NCI-H522 it was > 100 µM (inactive). The GI50 with OVCAR-3, with PC-3, in the test with RXF 393, in the test on SK-OV-3, in the test with SW-620 and with TK-10 was > 100 µM (inactive) throughout. Moreover, the GI50 in the test on UACC-257 and with UACC-62 was > 100 µM (inactive) in each case.

In the case of `COc1ccc2cc(CN3CCC(C4CCNCC4)CC3)ccc2c1`, the GI50 was 1.67 µM (inactive) in the test on 786-0; 5.33 µM (inactive) in the test on A498; 12.2 µM (inactive) in the test with A549; 1.96 µM (inactive) in the test on CCRF-CEM; 1.69 µM (inactive) in the test with COLO 205; 4.2 µM (inactive) in the test with DU-145. Further, the GI50 in the test on HCT-116 is 1.8 µM (inactive); in the test with HCT-15, 2.28 µM; in the test on Hs-578T, 2.93 µM (inactive); with MDA-MB-435 it was 1.91 µM (inactive); with NCI-H226, 7.93 µM (inactive); with NCI-H522, 2.17 µM (inactive). The GI50 in the test on OVCAR-3 was 5.41 µM (inactive); with PC-3, 7.8 µM (inactive); in the test on RXF 393, 2.28 µM (inactive); in the test on SK-OV-3, 10 µM (inactive); in the test on SW-620 it was 1.82 µM (inactive); in the test with TK-10, 3.79 µM (inactive). Also, the GI50 in the test with UACC-257 is 1.87 µM (inactive); in the test on UACC-62, 1.97 µM (inactive).

Take `C=C(C)C(=O)/N=C(\N)NC#N`: the GI50 is 37.8 µM (inactive) in the test on 786-0; > 46.5 µM (inactive) in the test on A498; 168 µM (inactive) in the test on A549; 23.7 µM (inactive) in the test on CCRF-CEM; 49.2 µM (inactive) in the test with COLO 205; 70.5 µM (inactive) in the test with DU-145. Further, the GI50 in the test on HCT-116 was 31.6 µM (inactive); in the test on HCT-15 it was 44.6 µM; with Hs-578T, 161 µM (inactive); in the test on MDA-MB-435, 131 µM (inactive); with NCI-H226, 145 µM (inactive); in the test with NCI-H522 it was 5.81 µM (inactive). For the same compound, the GI50 was 68.7 µM (inactive) with OVCAR-3; 158 µM (inactive) in the test on PC-3; 36.6 µM (inactive) in the test on RXF 393; 170 µM (inactive) in the test with SK-OV-3; 19.3 µM (inactive) in the test with SW-620; 41.7 µM (inactive) with TK-10. The GI50 in the test on UACC-257 was 29.9 µM (inactive); in the test with UACC-62, 34.7 µM (inactive).

Regarding `O=C(O)c1cc(/N=N/c2ccc([As](=O)(O)O)cc2)ccc1O`, the GI50 in the test with 786-0, in the test on A498, in the test on A549, in the test with CCRF-CEM, with COLO 205 and in the test with DU-145 was > 100 µM (inactive) each time. The GI50 in the test on HCT-116 is > 100 µM (inactive); in the test on HCT-15 it was over 100 µM; with Hs-578T, > 100 µM (inactive); with MDA-MB-435 it was > 100 µM (inactive); in the test with NCI-H226 it was > 100 µM (inactive); with NCI-H522, > 100 µM (inactive). The GI50 in the test with OVCAR-3, in the test with PC-3, in the test with RXF 393, in the test with SK-OV-3, in the test on SW-620 and in the test with TK-10 was > 100 µM (inactive) each time. The GI50 with UACC-257 and in the test on UACC-62 was > 100 µM (inactive) throughout.

Consider `CCOc1c(OC)cc(C2c3cc4c(c(OCC)c3CC3COC(=O)C32)OCO4)cc1OC` (stereo not given), for which the GI50 in the test with 786-0 was 2.62 µM (inactive); in the test with A498 it was 10.9 µM (inactive); in the test on A549, 2.86 µM (inactive); with CCRF-CEM it was 2.67 µM (inactive); with COLO 205 it was 2.22 µM (inactive); with DU-145, 2.69 µM (inactive). Further, the GI50 with HCT-116 is 2.16 µM (inactive); in the test on HCT-15, 0.608 µM; in the test on Hs-578T it was 1.99 µM (inactive); in the test with MDA-MB-435, 0.272 µM (active); with NCI-H226, 6.84 µM (inactive); in the test with NCI-H522, 2.25 µM (inactive). Besides, the GI50 is 1.12 µM (active) with OVCAR-3; 2.37 µM (inactive) in the test with PC-3; 4.6 µM (inactive) in the test with RXF 393; 4.03 µM (inactive) with SK-OV-3; 1.24 µM (inactive) with SW-620; 5.87 µM (inactive) with TK-10. Further, the GI50 in the test on UACC-257 is 0.912 µM (active); in the test with UACC-62, 0.365 µM (active).

As for `C=C1C(=O)OC2/C=C(\CO)C3OC3C3OC3(C)CC(OC(=O)/C(=C/C)CO)C12` (stereo not given), the GI50 in the test with 786-0 was 36.8 µM (inactive); in the test on A498, > 100 µM (inactive); in the test on A549, > 100 µM (inactive); with CCRF-CEM, 9.33 µM (inactive); in the test with COLO 205, 34.4 µM (inactive); in the test with DU-145 it was > 100 µM (inactive). The GI50 in the test on HCT-116 was 35.8 µM (inactive); in the test on HCT-15, 36.6 µM; in the test on Hs-578T it was > 100 µM (inactive); in the test with MDA-MB-435, 53.8 µM (inactive); in the test on NCI-H226, > 100 µM (inactive); in the test on NCI-H522, 15.8 µM (inactive). Moreover, the GI50 was > 100 µM (inactive) in the test with OVCAR-3; > 100 µM (inactive) in the test with PC-3; 47.1 µM (inactive) in the test on RXF 393; > 100 µM (inactive) in the test on SK-OV-3; 30.1 µM (inactive) in the test on SW-620; > 100 µM (inactive) in the test with TK-10. The GI50 with UACC-257 is > 100 µM (inactive); in the test on UACC-62, 57.3 µM (inactive).

On to `CC(=O)c1nc2ccccc2n1C(C)C(=O)c1ccccc1` (stereo not given), for which the GI50 in the test with 786-0 was 36.9 µM (inactive); in the test with A498, > 100 µM (inactive); with A549, 27.1 µM (inactive); in the test on CCRF-CEM, 39.6 µM (inactive); in the test on COLO 205, > 100 µM (inactive); in the test on DU-145, 64.9 µM (inactive). Further, the GI50 with HCT-116 was 50.4 µM (inactive); with HCT-15 it was 81.5 µM; in the test with Hs-578T, 81.1 µM (inactive); in the test with MDA-MB-435, 52.7 µM (inactive); with NCI-H226, > 100 µM (inactive); in the test with NCI-H522 it was 15.5 µM (inactive). For the same compound, the GI50 in the test with OVCAR-3 is 41.8 µM (inactive); with PC-3 it was 72.1 µM (inactive); with RXF 393 it was > 100 µM (inactive); in the test with SK-OV-3, 69 µM (inactive); in the test on SW-620 it was 43.7 µM (inactive); in the test on TK-10, 91.8 µM (inactive). Also, the GI50 was 54.6 µM (inactive) with UACC-257 and 33 µM (inactive) with UACC-62.

`Oc1cc(-c2ccc(F)cc2)nc2ncc(Cl)cc12`: the GI50 in the test with 786-0 was 32.7 µM (inactive); in the test on A498, 17.4 µM (inactive); in the test on A549 it was 35.5 µM (inactive); in the test with CCRF-CEM, 18.7 µM (inactive); in the test on COLO 205, 22.3 µM (inactive); in the test on DU-145 it was 21.4 µM (inactive). The GI50 in the test with HCT-116 was 9.51 µM (inactive); in the test on HCT-15, 4.62 µM; with Hs-578T it was 19.9 µM (inactive); in the test with MDA-MB-435, 2.82 µM (inactive); in the test on NCI-H226, 3.03 µM (inactive); in the test with NCI-H522 it was 10.5 µM (inactive). Besides, the GI50 with OVCAR-3 was 20.6 µM (inactive); in the test with PC-3, 20.2 µM (inactive); with RXF 393, 17.2 µM (inactive); with SK-OV-3, 45.5 µM (inactive); in the test on SW-620, 11.1 µM (inactive); with TK-10, > 83.4 µM (inactive). Further, the GI50 was > 68.9 µM (inactive) in the test with UACC-257 and 9.71 µM (inactive) in the test on UACC-62.

The values above are taken from ChEMBL document CHEMBL1201862, “PubChem BioAssay data set” (2004).
